Tests used:
M. smegmatis = assay: 45 hr MIC against M. smegmatis (NTM), Mueller Hinton broth; assay type: cell-based, Mycobacterium smegmatis; details: M. smegmatis MC^2 155, Run #1
[1] = Stability assessment in 100% CAA; assay type: in vitro ADME; design: unit not given beside the values
Experimental: Stability was assessed after incubation in 100% human serum at 37° C. after 10 minutes, 1 hour, and 2 hours.
Stability assessment was further conducted in 100% CAA and rabbit serum using the same methodology discussed above.

[2] = tested on: carbapenem-resistant P. aeruginosa clinical isolate CFS-1292; assay: MIC by modified CLSI broth microdilution against P. aeruginosa CFS-1292 (CAA, CAA + human serum); assay type: cell-based, Pseudomonas aeruginosa; details: for MIC (μg/mL) against CFS-1292 in 100% CAA (1st run/2nd run): 1st run or single value
Acinetobacter baumannii = assay: microbe, parasite or virus in culture; assay type: cell-based; details: for MIC: Acinetobacter baumannii ATCC BAA 747, CAA supplemented with human serum
Enterobacter cloacae = assay: microbe, parasite or virus in culture; assay type: cell-based; details: Enterobacter cloacae ATCC 13047; CAA supplemented with human serum
Experimental: (§1) Determination of Minimal Inhibitory Concentrations (MIC).
(§2) Additional MIC testing was performed for several peptides against the ESKAPE pathogens Escherichia coli, Enterobacter cloacae, Klebsiella pneumoniae, and Acinetobacter baumannii, in CAA supplemented with human serum (Table D).

Escherichia coli = assay: microbe, parasite or virus in culture; assay type: cell-based; details: Escherichia coli ATCC 25922; CAA supplemented with human serum
Experimental: as §1, §2

Klebsiella pneumoniae = assay type: cell-based; details: for MIC: Klebsiella pneumoniae HM-44, CAA supplemented with human serum
Experimental: as §1, §2

Pseudomonas aeruginosa = assay: microbe, parasite or virus in culture; assay type: cell-based; details: P. aeruginosa isolates (n per peptide in table)
[3] = tested on: carbapenem-resistant bacterial strains; assay: organism not typed; assay type: cell-based
Text: as §1

S. maltophilia = assay: MIC against S. maltophilia isolates; assay type: cell-based, Stenotrophomonas maltophilia; details: S. maltophilia isolates (n per peptide in table)
Experimental: as §1
In addition to the results discussed above in Example 3, further testing was conducted on several Chp peptides. MIC values were determined against different species, including P. aeruginosa, K. pneumoniae, A. baumannii, E. cloacae, E. coli, and S. maltophilia, and the results are presented below in Tables 40-45, wherein n=number of isolates tested for each species and MIC is measured as μg/mL.

[4] = A. baumannii isolates (n per peptide in table)
[5] = K. pneumoniae isolates (n per peptide in table)

Row | Sequence | 45 hr MIC (M. smegmatis) [µg/mL] | MIC (100% CAA) [1] | MIC (μg/mL) against CFS-1292 in 100% CAA (1st run/2nd run) [2] [µg/mL] | MIC (μg/mL) against CFS-1292 in CAA + […] human serum [2] [µg/mL] | MIC (Acinetobacter baumannii) [µg/mL] | MIC (Enterobacter cloacae) [µg/mL] | MIC (Escherichia coli) [µg/mL] | MIC (Klebsiella pneumoniae) [µg/mL] | other results
1 | MSSTLCRWAVKALRCTRVYKEFIWKPLVALSYVTLYLLSSVFLSQLSYPIGSWAV [Lvp1] | >128 | >64 | >64 | 0.5 | – | – | – | – | MIC (μg/mL) against CFS-1292 in CAA + […] human serum ([2]; listed as Lvp1 + DTT): 2 µg/mL
2 | MKRRKMTRKGSKRLFTATADKTKSINTAPPPMRGGIRL [Chp7] | 128 | 8 | 16 | 1 | >32 | >32 | 8 | 1 | –
3 | MSKKASRKSFTKGAVKVHKKNVPTRVPMRGGIRL [Gkh2] | 32 | 16 | 16 | – | 8 | 8 | 1 | 16 | –
4 | MAKKMTKGKDRQVFRKTADRTKKLNVRPLLYRGGIRL [Chp11] | 32 | 16 | 16 | 4 | 32 | 32 | 2 | 16 | –
5 | MCKKVCKKCPKKGPKNAPKIGAFYERKTPRLKQST [CPAR39] | >128 | 4 | 4 | 1 | – | – | – | – | MIC (μg/mL) against CFS-1292 in CAA + […] human serum ([2]; listed as CPAR39 + DTT): 4 µg/mL; MIC (μg/mL) against CFS-1292 in CAA + […] human serum ([2]; listed as CPAR39 − DTT): 64 µg/mL
6 | MRKRMSKRVDKKVFRRTAASAKKINIDPKIYRGGIRL [Osp1] | 32 | 4 | 16 | – | 32 | 32 | 0.5 | 0.125 | MIC50 (Pseudomonas aeruginosa): >8 µg/mL; MIC100 (Pseudomonas aeruginosa): >8 µg/mL; MIC Range (Pseudomonas aeruginosa): >8 µg/mL; MIC ([3]; carbapenem-resistant isolate PA19): >8 µg/mL; MIC ([3]; carbapenem-resistant isolate PA20): >8 µg/mL; MIC ([3]; carbapenem-resistant isolate PA21): >8 µg/mL; MIC ([3]; carbapenem-resistant isolate PA22): >8 µg/mL; MIC ([3]; carbapenem-resistant isolate PA23): >8 µg/mL; MIC ([3]; carbapenem-resistant isolate PA24): >8 µg/mL; MIC ([3]; carbapenem-resistant isolate WLC-452): 8 µg/mL; MIC50 (Acinetobacter baumannii; [4]): 8 µg/mL; MIC100 (Acinetobacter baumannii; [4]): 8 µg/mL; MIC Range (Acinetobacter baumannii; [4]): 2 to 8 µg/mL; MIC50 (S. maltophilia): >8 µg/mL; MIC100 (S. maltophilia): >8 µg/mL; MIC Range (S. maltophilia): >8 µg/mL; MIC50 (Klebsiella pneumoniae; [5]): >8 µg/mL; MIC100 (Klebsiella pneumoniae; [5]): >8 µg/mL; MIC Range (Klebsiella pneumoniae; [5]): >8 µg/mL
7 | MTKRDIEYRKALGLNPSEPLPKIVGAVTRHGATLKRPRVTALAR [SBR77] | >64 | >64 | 4 | >16 | – | – | – | – | MIC (μg/mL) against CFS-1292 in CAA + […] human serum ([2]; listed as SBR77 (Sbr1)): 0.5 µg/mL
